According to patent publication US6914045B2, “Glycopeptide antibiotics” (Wyeth Holdings Corporation, priority 2001, dated 2005):
≈ marks a conversion by molar mass, not a printed value.

Experiments:
[1] = anatomic pathology (histopathology of heart and kidney) in mice; type: in vivo; conditions: CD-1 mice, 20 mg/kg intravenously daily for 9 days, necropsy day 10, microscopic histopathology
Description: Samples of tissues from necropsied mice were formalin-fixed, paraffin-embedded, sectioned, stained with hematoxylin and eosin, and examined microscopically. Histopathologic findings were recorded. These findings were subjectively graded on a scale corresponding to slight, mild, moderate, marked and severe as compared to untreated controls.

[2] = system: Staphylococcus aureus-SMITH (GC 4543); assay: acute lethal infection in mice; type: in vivo; conditions: acute lethal infection, female CD-1 mice, intraperitoneal challenge, intravenous 30 min. after infection, 7 day survival
Procedure, shortened: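 Intraperitoneal challenge of female CD-1 mice with a bacterial dose lethal to untreated animals within 24-48 hr; single iv treatment 30 min later, 5 mice per dose level. Survival is scored at day 7 and pooled from three experiments to give the median effective dose.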

Escherichia coli = assay: in vitro antibacterial evaluation, MIC by broth dilution; type: cell-based; conditions: 18 hours at 35° C.
Procedure, shortened: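 MIC is the lowest antibiotic concentration (tested 64-0.06 μg/mL) preventing growth of a 5×10^5 CFU/mL inoculum. Determined by broth dilution in Mueller-Hinton II medium following NCCLS standard M7-A2.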

Staphylococcus sp. = assay: as above; type: cell-based; conditions: broth dilution, 18 hours at 35° C.
Procedure, shortened: (§1)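 Test organisms, which included recent clinical isolates resistant to methicillin, penicillin and/or vancomycin, were inoculated at 5×10^5 CFU/mL into Muller-Hinton II […] containing antibiotic at 64-0.06 μg/mL. Minimum inhibitory concentrations were then read as the lowest level inhibiting growth.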

Streptococcus sp. = assay: as above; type: cell-based; conditions: broth dilution, 18 hours at 35° C.
Procedure, shortened: as §1

Enterococcus sp. = assay: as above; type: cell-based; conditions: broth dilution, 18 hours at 35° C.
Procedure, shortened: as §1

CC(c1ccccc1)C1NC(=O)CNC(=O)C(CO)NC(=O)C(C(O)C2CN(Cc3ccc4ccccc4c3)C(=N)N2C2OC(CO)C(O)C(O)C2O)NC(=O)C(C(O)C2CNC(=N)N2)NC(=O)C(Cc2ccc(OC3OC(CO)C(OC4OC5COC6(OC5C(O)C4O)C4CC5CC(C4)CC6C5)C(O)C3O)cc2)NC1=O (stereo not drawn) [Example 78, Cyclo[glycyl-β-methylphenylalanyl-O-[4-O-[4,6-O-(2-adamantylidene)hexopyranosyl]hexopyranosyl]tyrosyl-3-(2-iminoimidazolidin-4-yl)seryl-3-[3-hexopyranosyl-2-imino-1-(2-naphthylmethyl)-imidazolidin-4-yl]serylseryl]]
Anatomical Pathology (Day 10), Heart [1]: 0
Anatomical Pathology (Day 10), Kidney [1]: ++
median effective dose (ED50), Staphylococcus aureus-SMITH (GC 4543) [2]: 2 mg/kg
MIC Escherichia coli (ATCC 25922) (Escherichia coli): 128 µg/mL (≈ 81.6 µM)
MIC Escherichia coli (GC 4559) (Escherichia coli): 128 µg/mL (≈ 81.6 µM)
MIC Escherichia coli (GC 4560) (Escherichia coli): 4 µg/mL (≈ 2.55 µM)
MIC Staphylococcus aureus (ATCC 29213) (Staphylococcus sp.; strain ATCC 29213): 8 µg/mL (≈ 5.1 µM)
MIC Staphylococcus aureus (GC 1131) (Staphylococcus sp.; strain GC 1131): 8 µg/mL (≈ 5.1 µM)
MIC Staphylococcus aureus (GC 3051) (Staphylococcus sp.; strain GC 3051): 8 µg/mL (≈ 5.1 µM)
MIC Staphylococcus aureus (GC 3053) (Staphylococcus sp.; strain GC 3053): 8 µg/mL (≈ 5.1 µM)
MIC Staphylococcus aureus (GC 4541) (Staphylococcus sp.; strain GC 4541): 4 µg/mL (≈ 2.55 µM)
MIC Staphylococcus aureus (GC 4542) (Staphylococcus sp.; strain GC 4542): 8 µg/mL (≈ 5.1 µM)
MIC Staphylococcus aureus-SMITH (GC 4543) (Staphylococcus sp.; strain GC 4543): 4 µg/mL (≈ 2.55 µM)
MIC Staphylococcus aureus (GC 4544) (Staphylococcus sp.; strain GC 4544): 8 µg/mL (≈ 5.1 µM)
MIC Staphylococcus aureus (GC 4545) (Staphylococcus sp.; strain GC 4545): 8 µg/mL (≈ 5.1 µM)
MIC Staphylococcus haemolyticus (GC 4546) (Staphylococcus sp.; strain GC 4546): 4 µg/mL (≈ 2.55 µM)
MIC Coagulase Negative Staphylococcus (GC 4547) (Staphylococcus sp.; strain GC 4547): 4 µg/mL (≈ 2.55 µM)
MIC Coagulase Negative Staphylococcus (GC 4548) (Staphylococcus sp.; strain GC 4548): 4 µg/mL (≈ 2.55 µM)
MIC Coagulase Negative Staphylococcus (GC 4549) (Staphylococcus sp.; strain GC 4549): 8 µg/mL (≈ 5.1 µM)
MIC Coagulase Negative Staphylococcus (GC 4551) (Staphylococcus sp.; strain GC 4551): 8 µg/mL (≈ 5.1 µM)
MIC Coagulase Negative Staphylococcus (GC 6257) (Staphylococcus sp.; strain GC 6257): 2 µg/mL (≈ 1.28 µM)
MIC Streptococcus agalactiae (GC 4564) (Streptococcus sp.): 1 µg/mL (≈ 0.638 µM)
MIC Streptococcus pneumoniae (ATCC 6301) (Streptococcus sp.): 1 µg/mL (≈ 0.638 µM)
MIC Streptococcus pneumoniae (GC 1894) (Streptococcus sp.): 0.25 µg/mL (≈ 0.159 µM)
MIC Streptococcus pneumoniae (GC 4565) (Streptococcus sp.): 2 µg/mL (≈ 1.28 µM)
MIC Streptococcus pyogenes (GC 4563) (Streptococcus sp.): 0.5 µg/mL (≈ 0.319 µM)
MIC Streptococcus pneumoniae (ATCC 6301) (Streptococcus sp.; strain ATCC 6301): 1 µg/mL (≈ 0.638 µM)
MIC Streptococcus pneumoniae (GC 1894) (Streptococcus sp.; strain GC 1894): 0.25 µg/mL (≈ 0.159 µM)
MIC Streptococcus pyogenes (GC 4563) (Streptococcus sp.; strain GC 4563): 0.5 µg/mL (≈ 0.319 µM)
MIC Streptococcus agalactiae (GC 4564) (Streptococcus sp.; strain GC 4564): 1 µg/mL (≈ 0.638 µM)
MIC Streptococcus pneumoniae (GC 4565) (Streptococcus sp.; strain GC 4565): 2 µg/mL (≈ 1.28 µM)
MIC Enterococcus avium (GC 4558) (Enterococcus sp.; Enterococcus avium (GC 4558)): 4 µg/mL (≈ 2.55 µM)
MIC Enterococcus faecalis (ATCC 29212) (Enterococcus sp.; Enterococcus faecalis (ATCC 29212)): 8 µg/mL (≈ 5.1 µM)
MIC Enterococcus faecalis (GC 4552) (Enterococcus sp.; Enterococcus faecalis (GC 4552)): 8 µg/mL (≈ 5.1 µM)
MIC Enterococcus faecalis (GC 4553) (Enterococcus sp.; Enterococcus faecalis (GC 4553)): 8 µg/mL (≈ 5.1 µM)
MIC Enterococcus faecalis (GC 4554) (Enterococcus sp.; Enterococcus faecalis (GC 4554)): 16 µg/mL (≈ 10.2 µM)
MIC Enterococcus faecalis (GC 6189) (Enterococcus sp.; Enterococcus faecalis (GC 6189)): 16 µg/mL (≈ 10.2 µM)
MIC Enterococcus faecium (GC 2243) (Enterococcus sp.; Enterococcus faecium (GC 2243)): 8 µg/mL (≈ 5.1 µM)
MIC Enterococcus faecium (GC 4556) (Enterococcus sp.; Enterococcus faecium (GC 4556)): 16 µg/mL (≈ 10.2 µM)
MIC Enterococcus faecium (GC 4557) (Enterococcus sp.; Enterococcus faecium (GC 4557)): 2 µg/mL (≈ 1.28 µM)
MIC Enterococcus avium (GC 4558) (Enterococcus sp.): 4 µg/mL (≈ 2.55 µM)
MIC Enterococcus faecalis (ATCC 29212) (Enterococcus sp.): 8 µg/mL (≈ 5.1 µM)
MIC Enterococcus faecalis (GC 2242) (Enterococcus sp.): 16 µg/mL (≈ 10.2 µM)
MIC Enterococcus faecalis (GC 2691) (Enterococcus sp.): 16 µg/mL (≈ 10.2 µM)
MIC Enterococcus faecalis (GC 3059) (Enterococcus sp.): 16 µg/mL (≈ 10.2 µM)
MIC Enterococcus faecalis (GC 4552) (Enterococcus sp.): 8 µg/mL (≈ 5.1 µM)
MIC Enterococcus faecalis (GC 4553) (Enterococcus sp.): 8 µg/mL (≈ 5.1 µM)
MIC Enterococcus faecalis (GC 4554) (Enterococcus sp.): 16 µg/mL (≈ 10.2 µM)
MIC Enterococcus faecalis (GC 6189) (Enterococcus sp.): 16 µg/mL (≈ 10.2 µM)
MIC Enterococcus faecium (GC 2243) (Enterococcus sp.): 8 µg/mL (≈ 5.1 µM)
MIC Enterococcus faecium (GC 4556) (Enterococcus sp.): 16 µg/mL (≈ 10.2 µM)
MIC Enterococcus faecium (GC 4557) (Enterococcus sp.): 2 µg/mL (≈ 1.28 µM)
MIC Enterococcus faecalis (GC 2242) (Enterococcus sp.; strain GC 2242): 16 µg/mL (≈ 10.2 µM)
MIC Enterococcus faecalis (GC 2691) (Enterococcus sp.; strain GC 2691): 16 µg/mL (≈ 10.2 µM)
MIC Enterococcus faecalis (GC 3059) (Enterococcus sp.; strain GC 3059): 16 µg/mL (≈ 10.2 µM)
